The supplement of paper PMC8671470

What follows are compounds tested on myeloid leukemia patient primary cells Pat.9 (assay: cell viability (% survival relative to DMSO control); higher = less cytotoxic). Conditions: 10000 nM; 72 h.
Outline: (§1)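 Where an area under the curve appears, it was computed with the drc and PharmacoGx R packages from log-logistic fits. Those fits used four parameters. The underlying viability data came from CellTiter-Glo after 72 h, normalised to DMSO and 10 μM proteasome-inhibitor wells, with thawed, Ficoll-purified AML or CML patient mononuclear cells at 10,000 cells/well in RPMI 1640 with 10% FBS on 384-well plates pre-printed with 70 compounds at five tenfold concentrations (1–10,000 nM) in duplicate.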

First: Nc1nc(Cl)nc2c1ncn2[C@H]1C[C@H](O)[C@@H](CO)O1 [Cladribine]
Second: Oc1ccc(Nc2nc(-c3ccc(Cl)cc3)cs2)cc1 [SKI II]
The cell viability of the first is lower: 4.28% for the first, 4.42% for the second.

First: N#CC(C#N)=NNc1ccc(OC(F)(F)F)cc1 [FCCP]
Second: O=C1c2cc([N+](=O)[O-])ccc2-n2c1nc1ccccc1c2=O [GNF-Pf-3777]
The cell viability of the first is lower: 0.492% for the first, 25.8% for the second.

Compared with O=C(O)Cn1nnc(-c2cc(N3CCC(Oc4cc(F)ccc4Br)CC3)no2)n1 [MK-8245], CC[C@@]1(O)C(=O)OCc2c1cc1n(c2=O)Cc2cc3c(CN(C)C)c(O)ccc3nc2-1 [Topotecan] is lower in cell viability: 71.9% for the first, 1.24% for the second.

First: C=C(C=NNC(=N)N)NNC(=N)N [Mitoguazone]
Second: C=C(C)[C@H]1Cc2c(ccc3c2O[C@@H]2COc4cc(OC)c(OC)cc4[C@@H]2C3=O)O1 [Rotenone]
The cell viability of the first is higher: 57.2% for the first, less than 0% for the second.

COc1cc(/C=C/C(=O)N2CCC=CC2=O)cc(OC)c1OC [Piperlongumine] showed a cell viability of 7.88%.

Each compound was assayed on myeloid leukemia patient primary cells Pat.10 in the same assay as above. Conditions: 1 nM; 72 h.
Outline: as §1

First: O=C(C1CC1)N1CC[C@@H](C=C2NNC(=O)N2c2ccc(-c3ccc4occc4c3)cc2)C1
Second: Cc1c(-c2ccc(-c3ccccc3F)cc2)nc2ccc(F)cc2c1C(=O)O [Brequinar]
The cell viability of the first is higher: 80.8% for the first, 58.9% for the second.

Compared with C[C@H](NC(=O)c1sccc1OCc1ccc(Cl)cc1)c1ccccc1, Oc1ccc(Nc2nc(-c3ccc(Cl)cc3)cs2)cc1 [SKI II] is lower in cell viability: 81.9% for the first, 49.5% for the second.

First: O=C(O)C1=CC(=C(c2ccc(O)c(C(=O)O)c2)c2ccc(O)c(C(=O)O)c2)C=CC1=O [Aurintricarboxylic acid]
Second: O=C1c2cc([N+](=O)[O-])ccc2-n2c1nc1ccccc1c2=O [GNF-Pf-3777]
The cell viability of the first is higher: 98.4% for the first, 61.7% for the second.

First: COC(=O)[C@]12CCC(C)(C)C[C@H]1[C@H]1C(=O)C=C3[C@@]4(C)C=C(C#N)C(=O)C(C)(C)[C@@H]4CC[C@@]3(C)[C@]1(C)CC2 [Bardoxolone methyl]
Second: COc1cc(/C=C/C(=O)N2CCC=CC2=O)cc(OC)c1OC [Piperlongumine]
The cell viability of the first is higher: 82.4% for the first, 79.5% for the second.

Going from O=C1O/C(=C/Br)CCC1c1cccc2ccccc12 (centres undefined) [Bromoenol Lactone] to O=C(O)Cn1nnc(-c2cc(N3CCC(Oc4cc(F)ccc4Br)CC3)no2)n1 [MK-8245], the cell viability falls from 63.6% to 56.6%.

Compared with Nc1nc(Cl)nc2c1ncn2[C@H]1C[C@H](O)[C@@H](CO)O1 [Cladribine], CC[C@@]1(O)C(=O)OCc2c1cc1n(c2=O)Cc2cc3c(CN(C)C)c(O)ccc3nc2-1 [Topotecan] is lower in cell viability: 95% for the first, 84.6% for the second.

Compared with N#CC(C#N)=NNc1ccc(OC(F)(F)F)cc1 [FCCP], C=C(C)[C@H]1Cc2c(ccc3c2O[C@@H]2COc4cc(OC)c(OC)cc4[C@@H]2C3=O)O1 [Rotenone] is lower in cell viability: 66.5% for the first, 38.7% for the second.

Compound C=C(C=NNC(=N)N)NNC(=N)N [Mitoguazone] has a cell viability of 78.7%.

Same assay, conditions: 10 nM; 72 h

Going from O=C(C1CC1)N1CC[C@@H](C=C2NNC(=O)N2c2ccc(-c3ccc4occc4c3)cc2)C1 to Cc1c(-c2ccc(-c3ccccc3F)cc2)nc2ccc(F)cc2c1C(=O)O [Brequinar], the cell viability rises from 46.1% to 81.4%.

Compared with C[C@H](NC(=O)c1sccc1OCc1ccc(Cl)cc1)c1ccccc1, Oc1ccc(Nc2nc(-c3ccc(Cl)cc3)cs2)cc1 [SKI II] is lower in cell viability: 67.4% for the first, 47.7% for the second.

Going from O=C(O)C1=CC(=C(c2ccc(O)c(C(=O)O)c2)c2ccc(O)c(C(=O)O)c2)C=CC1=O [Aurintricarboxylic acid] to O=C1c2cc([N+](=O)[O-])ccc2-n2c1nc1ccccc1c2=O [GNF-Pf-3777], the cell viability falls from 90.3% to 47.7%.

Going from COC(=O)[C@]12CCC(C)(C)C[C@H]1[C@H]1C(=O)C=C3[C@@]4(C)C=C(C#N)C(=O)C(C)(C)[C@@H]4CC[C@@]3(C)[C@]1(C)CC2 [Bardoxolone methyl] to COc1cc(/C=C/C(=O)N2CCC=CC2=O)cc(OC)c1OC [Piperlongumine], the cell viability rises from 56% to 77.8%.

Going from O=C1O/C(=C/Br)CCC1c1cccc2ccccc12 (centres undefined) [Bromoenol Lactone] to O=C(O)Cn1nnc(-c2cc(N3CCC(Oc4cc(F)ccc4Br)CC3)no2)n1 [MK-8245], the cell viability rises from 47.6% to 80.7%.

First: Nc1nc(Cl)nc2c1ncn2[C@H]1C[C@H](O)[C@@H](CO)O1 [Cladribine]
Second: CC[C@@]1(O)C(=O)OCc2c1cc1n(c2=O)Cc2cc3c(CN(C)C)c(O)ccc3nc2-1 [Topotecan]
The cell viability of the first is lower: 33.1% for the first, 88.3% for the second.

Going from N#CC(C#N)=NNc1ccc(OC(F)(F)F)cc1 [FCCP] to C=C(C)[C@H]1Cc2c(ccc3c2O[C@@H]2COc4cc(OC)c(OC)cc4[C@@H]2C3=O)O1 [Rotenone], the cell viability rises from 64% to 75.5%.

Compound C=C(C=NNC(=N)N)NNC(=N)N [Mitoguazone] has a cell viability of 59.4%.

Same assay, conditions: 100 nM; 72 h

First: O=C(C1CC1)N1CC[C@@H](C=C2NNC(=O)N2c2ccc(-c3ccc4occc4c3)cc2)C1
Second: Cc1c(-c2ccc(-c3ccccc3F)cc2)nc2ccc(F)cc2c1C(=O)O [Brequinar]
The cell viability of the first is lower: 50.2% for the first, 56.6% for the second.

Compared with C[C@H](NC(=O)c1sccc1OCc1ccc(Cl)cc1)c1ccccc1, Oc1ccc(Nc2nc(-c3ccc(Cl)cc3)cs2)cc1 [SKI II] is higher in cell viability: 73.5% for the first, greater than 100% for the second.

Going from O=C(O)C1=CC(=C(c2ccc(O)c(C(=O)O)c2)c2ccc(O)c(C(=O)O)c2)C=CC1=O [Aurintricarboxylic acid] to O=C1c2cc([N+](=O)[O-])ccc2-n2c1nc1ccccc1c2=O [GNF-Pf-3777], the cell viability falls from 91.9% to 77.9%.

First: COC(=O)[C@]12CCC(C)(C)C[C@H]1[C@H]1C(=O)C=C3[C@@]4(C)C=C(C#N)C(=O)C(C)(C)[C@@H]4CC[C@@]3(C)[C@]1(C)CC2 [Bardoxolone methyl]
Second: COc1cc(/C=C/C(=O)N2CCC=CC2=O)cc(OC)c1OC [Piperlongumine]
The cell viability of the first is lower: 11.8% for the first, 71.8% for the second.

Going from O=C1O/C(=C/Br)CCC1c1cccc2ccccc12 (centres undefined) [Bromoenol Lactone] to O=C(O)Cn1nnc(-c2cc(N3CCC(Oc4cc(F)ccc4Br)CC3)no2)n1 [MK-8245], the cell viability rises from 46.5% to greater than 100%.

First: Nc1nc(Cl)nc2c1ncn2[C@H]1C[C@H](O)[C@@H](CO)O1 [Cladribine]
Second: CC[C@@]1(O)C(=O)OCc2c1cc1n(c2=O)Cc2cc3c(CN(C)C)c(O)ccc3nc2-1 [Topotecan]
The cell viability of the first is lower: 0.135% for the first, 35.4% for the second.

Going from N#CC(C#N)=NNc1ccc(OC(F)(F)F)cc1 [FCCP] to C=C(C)[C@H]1Cc2c(ccc3c2O[C@@H]2COc4cc(OC)c(OC)cc4[C@@H]2C3=O)O1 [Rotenone], the cell viability falls from 50.5% to 47.7%.

With C=C(C=NNC(=N)N)NNC(=N)N [Mitoguazone] the cell viability was 13.6%.

Same assay, conditions: 1000 nM; 72 h

Compared with O=C(C1CC1)N1CC[C@@H](C=C2NNC(=O)N2c2ccc(-c3ccc4occc4c3)cc2)C1, Cc1c(-c2ccc(-c3ccccc3F)cc2)nc2ccc(F)cc2c1C(=O)O [Brequinar] is higher in cell viability: 67% for the first, 77.9% for the second.

Compared with C[C@H](NC(=O)c1sccc1OCc1ccc(Cl)cc1)c1ccccc1, O=C(O)C1=CC(=C(c2ccc(O)c(C(=O)O)c2)c2ccc(O)c(C(=O)O)c2)C=CC1=O [Aurintricarboxylic acid] is higher in cell viability: 80.2% for the first, greater than 100% for the second.

Compound COC(=O)[C@]12CCC(C)(C)C[C@H]1[C@H]1C(=O)C=C3[C@@]4(C)C=C(C#N)C(=O)C(C)(C)[C@@H]4CC[C@@]3(C)[C@]1(C)CC2 [Bardoxolone methyl] has a cell viability of 2.87%.
